Assay results published in patent US11154548B2, “Monosubstituted or polysubstituted amphiphilic hypocrellin derivative, and preparation method and application thereof” (Technical Institute of Physics and Chemistry of the Chinese …, priority 2015, dated 2021).
Entries after “also recorded” stand apart in the source; their conditions may differ.

Tests used:
Type in all cases: cell-based
Hela cells [1] = experiment: Cell phototoxicity experiment, 635 nm laser, MTT assay; settings: for Hela cells killed: 160 nM, exposed to red light (635 nm, 20 mW/cm^2, 1000 S), FIG. 10b
Procedure: (§1) Cultured Hela cells were digested and percussed with 0.25% trypsin, made into a single cell suspension, adjusted to a cell count of about 2×10^4/mL, inoculated into a 96-well culture plate with 200 uL/well, and cultured in an incubator with a 5% CO2 environment at 37° C. After cells were adherent, the supernatant culture solution was discarded, different concentrations of photosensitizers (hematoporphyrin derivative HpD, HB, and hypocrellin derivative HB-1) were added strictly in dark according to the experiment design, and further incubated in an incubator with a 5% CO2 environment at 37° C. for another 1 h. Then the 96-well culture plate was perpendicularly irradiated with uniform semiconductor laser beam at a wavelength of 635 nm with the power density adjusted to 20 mW/cm^2 for 1000 S. At the same time, a blank group was arranged for each 96-well culture plate, and 6 wells were arranged for each condition. After irradiation, the culture plate was further incubated in an incubator with a 5% CO2 environment at 37° C. for another 24 h, and then the cell survival rate was detected. The survival rate of cells was detected by MTT assay. 20 uL of MTT (prepared with PBS, concentration: 5 mg/mL) was added to each well, and further incubated in an incubator with a 5% CO2 environment at 37° C. for another 4 h. Then the incubation was terminated. The supernatant was carefully pipetted from the wells and discarded, and then 150 uL of dimethyl sulfoxide (DMSO) was added to each well. The violet crystal was fully dissolved by vibration with a microvibrator for 10 min. The optical density value (OD value) of each well was detected by an ELIASA at 570 nm wavelength to calculate the cell survival rate according to the following formula: cell survival rate=OD value of the experimental group/OD value of the blank group×100%.

Hela cells [2] = experiment: Dark toxicity experiment of polysubstituted derivatives, MTT assay; settings: in dark; for cytotoxicity (dark toxicity): Hela cells, FIG. 16a / FIG. 18a
Procedure: Dark toxicity experiment: Hela cells at a certain concentration were inoculated into a 96-well plate, and cultured for 12-24 h. […] […] The survival rate of cells in each group was detected by MTT assay.
Dark toxicity experiment: Hela cells at a certain concentration were inoculated into a 96-well plate, and cultured for 12-24 h. […] […] The survival rate of cells in each group was detected by MTT assay. […] After laser irradiation with a power density of 20 mW/cm^2 at a wavelength of 808 nm for 20 min, the Hela cells were further cultured and incubated in an incubator with a 5% CO2 environment at 37° C. for another 24 h. The survival rate of cells in each group was detected by MTT assay.

Hela cells [3] = experiment: Phototoxicity experiment, 671 nm laser, MTT assay; settings: 200 nM, 50 mW/cm^2, 20 min, FIG. 16b
Procedure: Phototoxicity experiment: Hela cells were incubated together with different concentrations of the compound I-1, the HB and the Ce6 respectively, further incubated in an incubator with a 5% CO2 environment at 37° C. for another 1 hour. After laser irradiation with a power density of 50 mW/cm^2 at a wavelength of 671 nm for 20 min, the Hela cells were further cultured and incubated in an incubator with a 5% CO2 environment at 37° C. for another 24 h. The survival rate of cells in each group was detected by MTT assay.

Hela cells [4] = experiment: Dark cytotoxicity experiment, MTT assay; settings: in dark
Procedure: as §1, with “and further incubated in an incubator with a 5% CO2 environment at 37° C. for another 1 h. Then the 96-well culture plate was perpendicularly irradiated with uniform semiconductor laser beam at a wavelength of 635 nm with the power density adjusted to 20 mW/cm^2 for 1000 S. At the same time, a blank group was arranged for each 96-well culture plate, and 6 wells were arranged for each condition. After irradiation, the culture plate was further incubated in an incubator with a 5% CO2 environment at 37° C. for another 24 h, and then the cell survival rate was detected.” left out

Hela cells [5] = experiment: Phototoxicity experiment, 808 nm laser, MTT assay; settings: 300 nM, 20 mW/cm^2, 20 min, FIG. 18b

| Compound | Hela cells killed (Hela cells [1]) | cytotoxicity (dark toxicity) (Hela cells [2]) | Hela cells killed (Hela cells [3]) | also measured |
| --- | --- | --- | --- | --- |
| hypocrellin B [HB] | about 20% |  |  | phototoxicity / photodynamic effect, in words (Hela cells [1]; Hela cells, compared with HB and HpD, FIG. 10-14): much poorer ability to photodynamically kill tumor cells |
| CCCCNc1c(O)c2c3c(c(OC)c4c5c6c(c(O)c(OC)c7c6c(c1C=C(C)C7C(C)=O)c42)C(=O)C=C5OC)SCCN=3 (stereo not drawn) [I-1] |  | very low cytotoxicity; also recorded: low cytotoxicity | more than 90% | death of Hela cells after incubation with the photosensitizer (Hela cells [2]; 10 uM, half an hour): significant death of the Hela cells are not seen |
| COC1=CC(=O)c2c(O)c(OC)c3c4c2c1c1c(OC)c2c(c5c6c(c(c4c15)C=C(C)C3C(C)=O)NCCN6)=NC(C(=O)O)CS2 (stereo not drawn) [II-2] |  | very low cytotoxicity |  |  |
| COc1c(O)c2c(=O)cc(OC)c3c4c(OC)cc(=O)c5c(O)c(NCCOCCO)c6c(c(c1C(/C(C)=N/CCOCCO)C(C)=C6)c23)c54 (stereo not drawn) [HB-1] | more than 90% |  |  | death of Hela cells after incubation with the photosensitizer (Hela cells [4]; 10 uM, half an hour): significant death of the Hela cells are not seen; cytotoxicity (dark toxicity) (Hela cells [4]; Hela cells, FIG. 10a / FIG. 11a): low cytotoxicity |
| C=Cc1c(C)c2cc3nc(c(CC(=O)O)c4[nH]c(cc5nc(cc1[nH]2)C(C)=C5CC)c(C)c4C(=O)O)[C@@H](CCC(=O)O)[C@@H]3C [Ce6, dihydroporphin Ce6, reference compound] |  |  | about 30% | Hela cells killed (Hela cells [5]): about 20% |
| hematoporphyrin derivative [HpD] | about 20% |  |  |  |
